We go through two compounds from patent publication US20250243172A1, “NLRP3 INFLAMMASOME INHIBITORS AND COMPOSITIONS AND USES THEREOF” (VIRGINIA COMMONWEALTH UNIVERSITY, priority 2022, published 2025).

SMILES strings stand for the structures.

This experiment concerns the target human recombinant NLRP3 protein. The experiment can be described thus: Binding of NSIs to recombinant NLRP3 protein by microscale thermophoresis (Monolith NT.Automated). To be noted: MST; His-NLRP3 labeled with RED-tris-NTA dye, 40 min incubation in PBS-T; duplicate reads. The procedure:
Monolith NT. Automated instrument was used to measure the Kd value. A range of concentrations of NSIs were incubated and His-NLRP3 pre-labeled with RED-tris-NTA dye kit (SKU: MO-L018) for 40 min in PBS-T assay buffer (1×PBS with 0.05% Tween® 20). The samples were loaded into NanoTemper® glass capillaries and series of ligand-induced changes in thermophoresis curves were gained using an Excitation power of 80% and a MST power of high. Kd values were calculated using the mass action equation with NanoTemper software from duplicate reads of an experiment.
Table 1 provides exemplary binding affinities of NSIs to human recombinant NLRP3 protein.
A general note: In MST a laser heats a spot of the sample, and binding alters the fluorescence response.

Turning to `COc1ccc(Cl)cc1Cn1cc(-c2ccc(C(=O)N3CCC3)cc2)nn1` [YM-III-11], the Kd turned out to be 3000 nM.

As to `COc1ccc(Cl)cc1Cn1cc(C(=O)N2CC(F)(F)C2)nn1` [YM-III-12], the Kd turned out to be 980 nM.

Usually Kd stands for a measure of binding affinity in units of concentration.
